According to patent US10000773B2, “Cytochrome P450 and use thereof for the enzymatic oxidation of terpenes” (FIRMENICH SA, priority 2011, dated 2018):

Assays:
[1] = test system: vetiver P450s; experiment: Bioconversion of other monoterpene and sesquiterpene molecules using whole E. coli cells expressing the vetiver P450s and CPR; format: cell-based, Vetiveria zizanioides (L.) Nash; conditions: resting E. coli cells in potassium phosphate buffer as in Example 8
Method: The cells were harvested in exponential growing phase, centrifuged and resuspended in 0.5 volume of potassium phosphate buffer 50 mM pH 7.0 supplemented with 5% glycerol or 3% glucose. The substrate ((+)-zizaene) was added to a final concentration of 0.5 mg/ml as mixture composed of 10 mg Tween® 20 (sigma-Aldrich), 10 mg antifoam (Erol DF, PMC Ouvrie, Lesquin, France), 20 mg (+)-zizaene and 1 ml water. The conversion was allowed to proceed for 24 hours at 20° C. with moderate shaking. The media were extracted with 2 volumes of ethyl-acetate and the extracts were analyzed by GCMS on an Agilent 6890 Series GC system connected to an Agilent 5975 mass detector. The GC was equipped with 0.25 mm inner diameter by 30 m SPB-1 capillary column (Supelco, Bellefonte, Pa.). The carrier gas was He at a constant flow of 1 mL/min. The initial oven temperature was 50° C. (1 min hold) followed by a gradient of 10° C./min to 300° C. The identification of the products was based on the comparison of the mass spectra and retention indices with authentic standards and internal databases.
E. coli cells expressing the vetiver P450s and a CPR were prepared, grown and the bioconversions performed using resting cells in potassium phosphate buffer as described in Example 8.
Assays were performed with several terpene molecules and the formation of oxygenated terpene molecules was evaluated using GCMS analysis as described in Example 8.

[2] = test system: VzP521-11-1; experiment: Bioconversion of (+)-zizaene using whole E. coli cells expressing VzP521-11-1 and a CPR; format: cell-based, Vetiveria zizanioides (L.) Nash; conditions: 24 hours at 20° C.
Method: (§1) The oxidation of (+)-zizaene can be performed using whole E. coli cells expressing the vetiver P450s and a CPR (bioconversion). Zizaene was prepared using engineered E. coli cells following the method described in the patent WO 2010/134004 and using the sesquiterpene synthase with the sequence accession number HI931369.
(§2) E. coli cells (BL21Star™(DE3) E. coli cells (Invitrogen Ltd) or JM109(DE3) (Promega)) were transformed with the plasmids pCW-2391-521-11 or pCW-2392-521-16 or cells were co-transformed with the plasmids pCW-218-521-11 or pCW-218-521-16 and pACYC-tcATR1-opt and were grown in TB medium supplemented with 3% glycerol or LB medium supplemented with 1% glucose. The cultures were incubated at 37° C. until reaching an optical density of 1. The cultures were then transferred to 28° C., 1 mM IPTG and 74 μg/ml δ-aminolevulinic acid were added and the culture were incubated for 24 hours.
(§3) The cells were harvested in exponential growing phase, centrifuged and resuspended in 0.5 volume of potassium phosphate buffer 50 mM pH 7.0 supplemented with 5% glycerol or 3% glucose. […] The media were extracted with 2 volumes of ethyl-acetate and the extracts were analyzed by GCMS on an Agilent 6890 Series GC system connected to an Agilent 5975 mass detector. […]

[3] = test system: VzP521-16-1; experiment: Bioconversion of (+)-zizaene using whole E. coli cells expressing VzP521-16-1 and a CPR; format: cell-based, Vetiveria zizanioides (L.) Nash; conditions: 24 hours at 20° C.
Method: as §1, §2, §3

[4] = test system: heterologous P450 and CPR complex; format: cell-based, E. coli
Method: The oxidized products of (+)-zizaene can also be produced in E. coli cells engineered to produce sesquiterpenes from a carbon source such as glucose or glycerol. Plasmids were prepared consisting of the pCWori (Barnes H. J (1996) Method Enzymol. 272, 3-14) plasmid containing an operon composed of the P450, the P450-reductase and the terpene synthase. Two plasmids were thus prepared by inserting an RBS sequence and the optimized sequence encoding for the (+)-zizaene synthase (VzZS) after the stop codon of the CPR sequence in the pCW-2391-521-11 or pCW-2392-521-16.
The VzZS was amplified from pETDuet-VzZS-opt plasmid (as described in WO 2010/134004) using the primers 2401-VzZS-F (SEQ ID NO:33) and 2401-VzZS-R (SEQ ID NO:34). […]
OverExpress™ C43(DE3) E. coli cells (Lucigen® Corporation) were co-transformed with the plasmid pACYC-29258-4506 and the plasmid pCW-2401-521-11 or the plasmid pCW-2402-521-16. […] After 48 hours, the cultures were extracted with 2 volumes of tert-Butyl methyl ether (MTBE) and the extracts analyzed by GCMS as described in Example 8, except for the oven temperature that was initially set at 80° C. with one minute hold, followed by gradient of 10° C./min to 300° C.

| Compound | bioconversion, formation of oxygenated terpene molecules (GCMS) [1] | other results |
| --- | --- | --- |
| C=C(C)[C@H]1C=C2[C@H](C)CC[C@@H]2[C@H](C)CC1 [gamma-gurjunene] | bioconversion was observed |  |
| C=C(C)[C@@H]1CCC2=CCC[C@@H](C)[C@]2(C)C1 [valencene] | bioconversion was observed |  |
| C=C1[C@H]2C[C@H]3[C@@H](C(C)C)CC[C@]1(C)[C@H]3C2 [isosativene] | bioconversion was observed |  |
| C=C1[C@H]2CC[C@H](C)[C@@]23CC[C@@H](C3)C1(C)C [(+)-zizaene] | bioconversion was observed | oxidation products identified by GCMS [2]: khusimol, zizanal and zizanoic acid; oxidation of substrate (GCMS) ([2]; substrate 0.5 mg/ml): oxidation of (+)-zizaene was observed; oxidation products identified by GCMS [3]: khusimol, zizanal and zizanoic acid; oxidation of substrate (GCMS) ([3]; substrate 0.5 mg/ml): oxidation of (+)-zizaene was observed; oxidation of the sesquiterpene produced in the engineered cells (GCMS) [4]: is oxidized by the heterologous P450 and CPR complex |
| CC1=CCC2CC1C2(C)C (stereo not drawn) [alpha-pinene] | bioconversion was observed |  |
| CC1=CC[C@H]2[C@H]3[C@@H]1[C@]2(C)CC[C@H]3C(C)C [alpha-copaene] | bioconversion was observed |  |
| (−)-limonene | bioconversion was observed |  |
| C=C1CC[C@@]23C[C@@H]1C(C)(C)[C@@H]2CC[C@H]3C [beta-funebrene] | bioconversion was observed |  |
| C=C(C)C1CC=C(C)CC1 (single isomer, unassigned; (+)) [(+)-limonene] | bioconversion was observed |  |
| CC1=CC[C@@]23C[C@@H]1C(C)(C)[C@@H]2CC[C@H]3C [alpha-cedrene] | bioconversion was observed |  |
| CC1=CC[C@]23C[C@H]1C(C)(C)[C@@H]2CC[C@H]3C [alpha-funebrene] | bioconversion was observed |  |
| alpha neoclovenene | bioconversion was observed |  |
| C=C1CCCC(C)(C)[C@@]12CC=C(C)CC2 [beta-chamigrene] | bioconversion was observed |  |
| C=C1CC[C@@H]2[C@H]([C@@H]3[C@H](C)CC[C@H]13)C2(C)C [alloaromadendrene] | bioconversion was observed |  |
| CC1=CC[C@]2(C)CCCC(C)(C)[C@@]23C[C@@H]13 [thujopsene] | bioconversion was observed |  |
| C/C1=C\CC/C(C)=C/CC(C)(C)/C=C/C1 [alpha-humulene] | bioconversion was observed |  |
| CC1=CC[C@@H]2[C@@H]3[C@H]1[C@@]2(C)CCCC3(C)C [alpha-longipinene] | bioconversion was observed |  |
| alpha gurjunene | bioconversion was observed |  |
| C=C1CCC2CC1C2(C)C (stereo not drawn) [beta-pinene] | bioconversion was observed |  |
| CC1=C2CC[C@@H](C)[C@H]2[C@H]2[C@@H](CC1)C2(C)C [ledene] | bioconversion was observed |  |
